Reference: PMC10525927, “First Generation of Antioxidant Precursors for Bioisosteric Se-NSAIDs: Design, Synthesis, and In Vitro and In Vivo Anticancer Evaluation” (Antioxidants, 2023)

Columns and labels:
[1] = DPPH radical scavenging assay; conditions: positive controls, each time point and concentration (0.03 and 0.06 mg/mL)
Description: Briefly, the compounds were dissolved at a concentration of 1 mg/mL in absolute methanol, and a dilution was prepared. […] Then, 100 µL of the DPPH solution was added to 100 µL of the compounds’ solution to a final concentration of 0.03 mg/mL or 0.06 mg/mL, and the decolorization of the purple radical to the yellowish reduced form was followed by recording the absorbance at 517 nm. Ascorbic acid (Asc) and Trolox were used as positive controls. Both of them, Asc and Trolox, were purchased from Sigma-Aldrich. Determinations were recorded at eight different time intervals from 0 to 120 min on a BioTeck PowerWave XS spectrophotometer, and the data were collected using KCJunior version 1.41. software. All the measurements were carried out in triplicate. Results are expressed as the percentage of the radical scavenged, calculated using the following formula: % DPPH radical scavenging = [(Acontrol − Asample)/Acontrol] × 100, wherein Acontrol refers to the absorbance of the negative control and Asample refers to the absorbance of the tested compounds.

[2] = test system: T-47D breast cancer cells; parameters: method as in PMID 26750401, PMID 32987314, PMID 33799070, PMID 36257283; conditions: MTT; parent NSAIDs for reference, some values obtained from the literature; cited from earlier work
HT-29 colon cancer cells = test system: HT-29 colon cancer cells; parameters: method as in PMID 26750401, PMID 32987314, PMID 33799070, PMID 36257283; conditions: MTT; parent NSAIDs for reference, some values obtained from the literature; cited from earlier work
[3] = test system: DU-145 prostate cancer cells; parameters: method as in PMID 26750401, PMID 32987314, PMID 33799070, PMID 36257283; conditions: MTT; parent NSAIDs for reference, some values obtained from the literature; cited from earlier work
[4] = test system: MDA-MB-231 breast cancer cells; parameters: method as in PMID 26750401, PMID 32987314, PMID 33799070, PMID 36257283; conditions: MTT; parent NSAIDs for reference, some values obtained from the literature; cited from earlier work
[5] = test system: PC-3 prostate cancer cells; parameters: method as in PMID 26750401, PMID 32987314, PMID 33799070, PMID 36257283; conditions: MTT; parent NSAIDs for reference, some values obtained from the literature; cited from earlier work
[6] = test system: HCT-116 colon cancer cells; parameters: method as in PMID 26750401, PMID 32987314, PMID 33799070, PMID 36257283; conditions: MTT; parent NSAIDs for reference, some values obtained from the literature; cited from earlier work
H1299 lung cancer cells = test system: H1299 lung cancer cells; parameters: method as in PMID 26750401, PMID 32987314, PMID 33799070, PMID 36257283; conditions: MTT; parent NSAIDs for reference, some values obtained from the literature; cited from earlier work
A549 lung cancer cells = test system: A549 lung cancer cells; parameters: method as in PMID 26750401, PMID 32987314, PMID 33799070, PMID 36257283; conditions: MTT; parent NSAIDs for reference, some values obtained from the literature; cited from earlier work

SMILES | DPPH radical scavenging activity [1] | IC50 [2] | IC50 (HT-29 colon cancer cells) | IC50 [3] | IC50 [4] | IC50 [5] | IC50 [6] | IC50 (H1299 lung cancer cells) | IC50 (A549 lung cancer cells)
O=C1O[C@H]([C@@H](O)CO)C(O)=C1O [Asc, Ascorbic acid, reference compound] | maximal scavenging activity |  |  |  |  |  |  |  | 
CC(C)Cc1ccc(C(C)C(=O)O)cc1 (stereo not shown) [Ibup, ibuprofen] |  | > 50 µM | > 50 µM | > 50 µM | > 50 µM | > 50 µM | > 50 µM | > 50 µM | > 50 µM
CC(=O)Oc1ccccc1C(=O)O [ASA, aspirin] |  | > 50 µM | > 50 µM | > 50 µM | > 50 µM | > 50 µM | > 50 µM | > 50 µM | > 50 µM
COc1ccc2c(c1)c(CC(=O)O)c(C)n2C(=O)c1ccc(Cl)cc1 [Ind, indomethacin] |  | > 50 µM | > 50 µM | > 50 µM | > 50 µM | > 50 µM | > 50 µM | > 50 µM | > 50 µM
COc1ccc2cc([C@H](C)C(=O)O)ccc2c1 [Nap, naproxen] |  | > 50 µM | > 50 µM | > 50 µM | > 50 µM | > 50 µM | > 50 µM | > 50 µM | > 50 µM
Cc1c(C)c2c(c(C)c1O)CCC(C)(C(=O)O)O2 (stereo not shown) [Trolox, reference compound] | maximal scavenging activity |  |  |  |  |  |  |  | 
